System: RIN, MIN, β-TC1 (INSM1+ insulinomas)
Test: Cell survival assay (MTS), INSM1-positive insulinoma cells
Format: cell-based, rat, mouse
Details: 200 μM GCV, no virus, RTC-1 cells
Method: FIGS. 13A-13D illustrate that the oncolytic virus in combination with Ad-INSM1p-HSV-tk increased efficacy of tumor cell killing. An MTS colorimetric assay was conducted to measure the cell survival with 3 insulinoma cell lines: RIN, MIN, β-TC1 (INSM1^+ insulinomas), and Panc-1 (INSM1^− pancreatic epithelioid carcinoma).
FIG. 13D is a graph illustrating cells treated with a combination of Ad-IMSM1p-HSV-tk and Ad-INSM1p-E1A-HSV-tk viruses. Cells were first treated with virus ranging from 0-100 MOI. […] Cell survival was measured by MTS colorimetric analysis at 490 nm. (n=6). […]
FIG. 14D is a graph illustrating cells treated with a combination of Ad-IMSM1p-HSV-tk and Ad-INSM1p-E1A-HSV-tk viruses. […] Cell survival was measured by MTS colorimetric analysis at 490 nm. […]
Cell survival assay. […] Afterwards, cell survival was assessed using […] 96® AQueous One Solution Cell Proliferation Assay (Promega, cat. no. G3582) and read at 490 nm on a Bio-Tek Synergy-HT Microplate Reader. Results were plotted as relative absorbance (relative to control sample with no virus) against increasing viral MOI. Samples were conducted in six wells each and statistical significance was determined using the students T-test with a threshold of p<0.05.
For a second experiment, the same viral constructs were used to infect cancer cells at a constant 50 MOI. […] After the treatment period, cell survival was assessed using […] […]

With `Nc1nc(O)c2ncn(COC(CO)CO)c2n1` [GCV, 2-amino-9-{[(1,3-dihydroxypropan-2-yl)oxy]methyl}-6,9-dihydro-3H-purin-6-one] the “cell survival with GCV in the absence of adenovirus” value was “decrease in survival”.

Reference: patent publication US11246896B2, “Tumor-specific adenovirus vectors and therapeutic uses” (priority 2015, dated 2022)
